Measured values reported in US6900181B2, “Pharmaceutical composition” (Renovo Limited, priority 1995, dated 2005).

Legend:
[1] = test system: linear full thickness incisions on the dorsal skin; assay: Rat full thickness incisional wound healing and scarring model, intradermal injection to the wound margins; type: in vivo, Sprague Dawley rats; settings: for scarring / dermal architecture (histology): 80 days post wounding; for effect on wound healing (histological analysis): 10, 20, 40 mM at wounding and daily for following seven days, compared with PBS controls; for immunocytochemical analysis (fibronectin staining, monocyte/macrophage profiles): vs PBS controls; for histological analysis: 40 days post wounding
Procedure: Adult male Sprague Dawley rats (200-250 g) were anaesthetised using equal parts halothane, nitrous oxide and oxygen. Four linear full thickness incisions, 1 cm in length to the depth of the panniculus carnosus were made on the dorsal skin, 1 cm from the midline and 5 and 8 cm from the base of the skull. The wounds were left unsutured to heal by secondary intention. Experimental treatments were administered by intradermal injection to the wound margins (50 μl down each wound margin). At selected time points animals were killed by chloroform overdose. Wounds were excised from the surrounding tissue and bisected. Half the wounds were rapidly frozen in OCT for cryosection and immunoctyochemistry and half fixed in formaldehyde for wax embedding and histology. Wax sections were routinely stained with haematoxylin and eosin, picrosirius red and Massons Lille trichrome, to display collagen fibre thickness, density and orientation to enable assessment of scar quality. […] A range of doses (10 mM, 20 mM and 40 mM) was studied for each sugar, with PBS (phosphate buffered saline) as a control. Treatments were administered at the time of wounding and each day for the following seven days. Two animals per dose were studied at each of the three time points (7, 40 and 80 days post wounding) for each compound. […]. […] Treatments were administered at the time of wounding and each day for the following two days. One animal per dose was studied at each of the two time points (7 and 80 days post wounding). Total n=4. […] Department of Pharmacy, University of Manchester. A single concentration (20 mM) of this compound was studied, with PBS as a control. The time of administration varied to the previous experiments. Animals were split into three groups and treated on day 0 alone, days 0, 2 and 4, or days 0 to 7 inclusive. Two animals per treatment regime were studied at each of the three time points (3, 7 and 80 days) Total n=18.

wounds = assay: Experimental work treating wounds with other sugars; type: in vivo; settings: for effect on wound healing: compared with controls; for effect on scarring: in vivo
Source text: Galactose-6-phosphate and glycerol-3-phosphate have no effect upon either wound healing or scarring.

[2] = target: M6P/IGF II (insulin-like growth factor II) receptor (Homo sapiens, UniProt P11717); assay: ELISA-type assay using purified M6P/IGF II receptor; type: binding; settings: initial results; compared with M6P
Source text: In addition to the animal studies an ELISA-type assay using purified M6P/IGF II (insulin-like growth factor II) receptor was developed to determine if these analogues of M6P bind to the M6P/IGF II receptor.

[3] = 7 days post wounding, 10, 20, 40 mM
[4] = 10, 20, 40 mM, F1P effect particularly at 40 mM

Sequence of M6P/IGF II (insulin-like growth factor II) receptor (P11717 41-2491): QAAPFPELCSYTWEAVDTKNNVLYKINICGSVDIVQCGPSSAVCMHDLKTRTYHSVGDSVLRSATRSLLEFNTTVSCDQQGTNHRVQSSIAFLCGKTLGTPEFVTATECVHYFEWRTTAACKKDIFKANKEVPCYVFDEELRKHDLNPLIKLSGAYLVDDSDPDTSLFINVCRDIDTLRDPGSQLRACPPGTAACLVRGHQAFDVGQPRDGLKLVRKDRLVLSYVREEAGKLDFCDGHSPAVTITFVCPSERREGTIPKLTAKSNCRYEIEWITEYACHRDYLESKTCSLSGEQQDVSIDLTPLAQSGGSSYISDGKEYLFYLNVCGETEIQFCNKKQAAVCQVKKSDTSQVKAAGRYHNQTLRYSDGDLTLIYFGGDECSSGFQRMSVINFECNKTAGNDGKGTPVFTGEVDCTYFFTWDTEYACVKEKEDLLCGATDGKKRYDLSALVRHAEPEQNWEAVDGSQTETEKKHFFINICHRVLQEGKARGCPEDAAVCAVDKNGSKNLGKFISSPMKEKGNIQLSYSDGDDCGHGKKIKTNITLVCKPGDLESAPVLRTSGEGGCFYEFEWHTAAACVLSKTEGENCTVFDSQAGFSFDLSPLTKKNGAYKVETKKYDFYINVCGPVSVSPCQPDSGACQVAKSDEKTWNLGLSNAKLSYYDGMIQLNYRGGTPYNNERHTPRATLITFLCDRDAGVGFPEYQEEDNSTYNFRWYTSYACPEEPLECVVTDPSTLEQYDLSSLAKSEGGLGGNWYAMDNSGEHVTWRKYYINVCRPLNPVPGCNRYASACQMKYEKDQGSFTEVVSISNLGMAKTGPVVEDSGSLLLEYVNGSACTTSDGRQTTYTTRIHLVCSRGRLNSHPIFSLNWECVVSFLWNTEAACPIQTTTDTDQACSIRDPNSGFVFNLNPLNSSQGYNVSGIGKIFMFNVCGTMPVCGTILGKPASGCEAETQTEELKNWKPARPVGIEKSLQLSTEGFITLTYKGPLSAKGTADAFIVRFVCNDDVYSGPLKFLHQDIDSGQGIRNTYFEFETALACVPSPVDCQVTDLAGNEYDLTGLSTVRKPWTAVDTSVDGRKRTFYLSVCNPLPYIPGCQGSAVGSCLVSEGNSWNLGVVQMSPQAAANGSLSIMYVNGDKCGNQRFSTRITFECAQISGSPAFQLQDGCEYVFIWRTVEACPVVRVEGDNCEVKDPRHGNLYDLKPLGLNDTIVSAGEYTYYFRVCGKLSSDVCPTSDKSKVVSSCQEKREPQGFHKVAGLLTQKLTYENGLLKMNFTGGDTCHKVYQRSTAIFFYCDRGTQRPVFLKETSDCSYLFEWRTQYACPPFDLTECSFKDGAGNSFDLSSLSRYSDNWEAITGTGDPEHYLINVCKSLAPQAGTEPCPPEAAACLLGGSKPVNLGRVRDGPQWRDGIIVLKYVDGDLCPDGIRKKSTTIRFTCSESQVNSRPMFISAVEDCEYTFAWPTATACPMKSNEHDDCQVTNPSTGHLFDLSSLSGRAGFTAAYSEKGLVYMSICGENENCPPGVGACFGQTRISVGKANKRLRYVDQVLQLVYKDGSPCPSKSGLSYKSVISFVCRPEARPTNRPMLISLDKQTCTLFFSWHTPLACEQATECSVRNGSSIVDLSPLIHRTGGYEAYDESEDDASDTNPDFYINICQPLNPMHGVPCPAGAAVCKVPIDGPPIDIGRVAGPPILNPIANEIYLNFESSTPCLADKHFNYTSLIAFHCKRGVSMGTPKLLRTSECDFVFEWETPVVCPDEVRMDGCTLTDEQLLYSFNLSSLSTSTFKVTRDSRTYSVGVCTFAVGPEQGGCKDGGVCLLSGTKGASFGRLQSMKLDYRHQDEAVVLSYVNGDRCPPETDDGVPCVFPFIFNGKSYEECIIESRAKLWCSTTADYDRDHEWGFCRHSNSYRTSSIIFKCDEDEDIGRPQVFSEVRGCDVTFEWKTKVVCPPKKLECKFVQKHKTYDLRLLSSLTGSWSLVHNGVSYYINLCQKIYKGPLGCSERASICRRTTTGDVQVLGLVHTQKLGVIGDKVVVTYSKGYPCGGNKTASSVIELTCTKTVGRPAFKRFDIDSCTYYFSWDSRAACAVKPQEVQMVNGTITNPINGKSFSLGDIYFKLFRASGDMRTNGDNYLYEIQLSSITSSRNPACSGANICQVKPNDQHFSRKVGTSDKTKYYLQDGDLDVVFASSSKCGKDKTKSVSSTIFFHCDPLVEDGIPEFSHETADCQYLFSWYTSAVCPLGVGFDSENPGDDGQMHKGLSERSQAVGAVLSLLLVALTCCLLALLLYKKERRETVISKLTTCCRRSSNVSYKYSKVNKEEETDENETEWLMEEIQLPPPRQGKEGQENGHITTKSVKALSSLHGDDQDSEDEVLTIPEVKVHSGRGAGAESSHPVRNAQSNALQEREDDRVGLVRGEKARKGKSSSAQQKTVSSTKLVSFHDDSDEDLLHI

SMILES	effect on wound healing (wounds)	effect on scarring (wounds)	effect on wound healing (histological analysis) ([1]; 7 days post wounding)	immunocytochemical analysis (fibronectin staining, monocyte/macrophage profiles) [1, 3]	histological analysis ([1]; 10, 20, 40 mM)	scarring / dermal architecture (histology) [1, 4]	further results
O=C[C@@H](O)[C@@H](O)[C@H](O)[C@H](O)COP(=O)(O)O [M6P, mannose-6-phosphate]	–	–	–	–	–	–	histological analysis of treated wounds vs PBS controls ([1]; 7 days post wounding, 10 or 20 mM, or 10 mM + 10 mM M6P, at wounding and each day for following two days): none of the treated wounds appeared different to PBS controls; scarring / dermal architecture (histology) ([1]; 10 or 20 mM, or 10 mM + 10 mM M6P, at wounding and each day for following two days, vs controls): improvement in scarring
O=C[C@H](O)[C@@H](O)[C@@H](O)[C@H](O)COP(=O)(O)O [Galactose-6-phosphate]	no effect	no effect	–	–	–	–	–
O=P(O)(O)O[C@H]1O[C@H](CO)[C@@H](O[C@H]2O[C@H](CO)[C@@H](O)[C@H](O)[C@H]2O)[C@H](O)[C@H]1O [Malt1P, maltose-1-phosphate]	–	–	neither F1P or Malt1P had any effect on wound healing	treated wounds resembled controls	inconsistent, with no clear trend	improve the dermal architecture very slightly	binding to the M6P/IGF II receptor [2]: does not bind
O=P(O)(O)OCC(O)CO (stereo not drawn) [glycerol-3-phosphate]	no effect	no effect	–	–	–	–	–
O=C(COP(=O)(O)O)[C@@H](O)[C@H](O)[C@H](O)CO [F1P, fructose-1-phosphate]	–	–	neither F1P or Malt1P had any effect on wound healing	treated wounds resembled controls	inconsistent, with no clear trend	reduce scarring more significantly	–
